How the values were obtained:
[1] = tested on: human lung carcinoma cell line Calu 6; assay: Test Example 2B: docetaxel followed by YM155 (sequential), Calu 6 xenograft in nude mice; format: in vivo; details: for Number of CRs: animals with complete regression / animals in group; for Tumor Volume day 0 / Body Weight day 35 / Tumor Volume day 35: mean ± SEM, n=8
Procedure: (§1) The following study was conducted in the same way as Test Example 1 except for the administration timing.
B) The first day of administration was designated day 0, and observation continued until day 35. Each group (n=8) was treated as follows.
(§2) For 7-day sc continuous infusion, an osmotic pump containing either YM155 or physiological saline, was implanted in the dorsum of each animal while under anesthesia. The vehicle control group received a 7-day sc continuous infusion of physiological saline starting on day 8, and iv bolus injection of physiological saline on days 0, 4 and 8. The YM155 group received a 7-day sc continuous infusion of YM155 at 2 mg/kg/day starting on day 8, and iv bolus injection of physiological saline on days 0, 4 and 8. The docetaxel group received iv bolus injection of docetaxel at 20 mg/10 mL/kg on days 0, 4 and 8, as well as a 7-day sc continuous infusion of physiological saline starting on day 8. The combination group received both compounds instead of the vehicle, similarly to the YM155 and docetaxel groups. Results

[2] = tested on: human lung carcinoma cell line Calu 6; assay: Test Example 1: YM155 concomitant with docetaxel, Calu 6 xenograft in nude mice; format: in vivo; details: for Number of Complete Regressions: animals with CR / animals in group, during the experimental period to day 35; for Tumor Volume day 0: day 0 (first day of administration); for Tumor Volume day 0 / Body Weight day 35 / Tumor Volume day 35: mean ± SEM, n=8
Procedure: The dose levels are expressed in terms of YM155, the cationic moiety of the drug substance. Docetaxel hydrate (Taxotere® INJECTION) was purchased from Sanofi-Aventis Pharma Ltd. (West Lavel, FRA) and used as docetaxel.
YM155 was dissolved in and diluted with physiological saline in order to prepare dosing solutions (concentrations calculated using the following formulation: dose×mean body weight for each group/daily release volume). These solutions were prepared immediately before the implantation of an osmotic pump (Alzet® model 1007D Micro-Osmotic Pump, DURECT Co., CA, USA) into the test subjects. The solutions were then loaded into the pump. Docetaxel was diluted with physiological saline to prepare 2 mg/mL solutions immediately before administration.
The human lung carcinoma cell line Calu 6 (HTB-56, Lot No. 208280) was obtained from American Type Culture Collection (VA, USA). The cells were cultured at 37° C. in a 5% CO2 atmosphere in RPMI1640 medium supplemented with 10% heat-inactivated fetal bovine serum. The cells were collected with trypsin, suspended in PBS at 6×10^7 cells/mL, and then mixed with an equivalent volume of Matrigel® Basement Membrane Matrix (Becton Dickinson Co., Bedford, Mass., USA).
Five-week-old male nude mice (CAnN.Cg-Foxn1nu/CrlCrlj(nu/nu)) were purchased from Charles River Laboratories Japan, Inc (Kanagawa, Japan). They were maintained on a standard diet and water throughout the experiments under specific pathogen-free conditions. The cells were cultured in vitro and 3×10^6 cells/0.1 mL/mouse were grafted subcutaneously into the flank of 6-week-old nude mice. The mice with tumor volumes (length×width^2×0.5) of 97.3 to 182.7 mm^3 were divided into groups. This was done using SAS software in order to minimize intragroup and intergroup tumor volume variation.
The first day of administration was designated day 0, and observation continued until day 35. Each group (n=8) was treated as follows.
as §2, with “day 0,” for “day 8,”, “day 0.” for “day 8.”, “groups.” for “groups. Results”
Body weight and tumor diameter were measured every 3-4 days using calipers, and tumor volume was determined by calculating the volume of an ellipsoid using the formula: length×width^2×0.5. Antitumor activities are expressed as percent inhibition of tumor growth (% inh) and percent regression of the tumor (% reg). […] The percent regression of the tumor was calculated for all groups with observed tumor regression, using the following formula: 100×{1−(mean tumor volume of each group on day 35)/(mean tumor volume of each group on day 0)}. The number of Complete Regressions (CRs) in all groups were checked during the experimental period. The CR is defined by instances in which the tumor burden falls bellow the limit of palpation.
Values are expressed as the mean± the standard error of the mean (SEM). Tumor volume and body weight on day 35 were compared between each single compound group and combination group using the Student's t-test. P values of less than 5% are considered significant. SAS software was used for data processing.

[3] = tested on: human lung carcinoma cell line Calu 6; assay: Test Example 2A: YM155 followed by docetaxel (sequential), Calu 6 xenograft in nude mice; format: in vivo; details: for Number of CRs: animals with complete regression / animals in group; for Tumor Volume day 0 / Body Weight day 35 / Tumor Volume day 35: mean ± SEM, n=8
Procedure: as §1
A) The first day of administration was designated day 0, and observation continued until day 35. Each group (n=8) was treated as follows.
For 7-day sc continuous infusion, an osmotic pump containing either YM155 or physiological saline, was implanted in the dorsum of each animal while under anesthesia. The vehicle control group received a 7-day sc continuous infusion of physiological saline starting on day 0, and iv bolus injection of physiological saline on days 7, 11 and 15. The YM155 group received a 7-day sc continuous infusion of YM155 at 2 mg/kg/day starting on day 0 and iv bolus injection of physiological saline on days 7, 11 and 15. The docetaxel group received iv bolus injection of docetaxel at 20 mg/10 mL/kg on days 7, 11 and 15, as well as a 7-day sc continuous infusion of physiological saline starting on day 0. The combination group received both compounds instead of the vehicle, similarly to the YM155 and docetaxel groups. Results

[4] = tested on: human NSCLC xenograft models; details: NSCLC xenograft model; Ref. 15; cited from earlier work
[5] = tested on: lymphoma WSU-DLCL-2 cells; assay: Test Example 6: YM155 followed by R-ICE, WSU-DLCL-2 xenograft; format: in vivo, nude mice
Procedure: The study was conducted in the same way as Test Example 5 according to the following dosage regimen.
YM155 group YM155 2 mg/kg/day (7-day sc continuous infusion)
RICE group RTX 50 mg/kg, i.v. (day 6 and 8)+(IFM 400 mg/kg+CBDCA 30 mg/kg), i.v (day 9)+ETP 10 mg/kg, i.v (day 8, 9 and 10)
YM155→RICE group YM155 2 mg/kg/day (7-day sc continuous infusion)+RTX 50 mg/kg, i.v. (day 6 and 8)+(IFM 400 mg/kg+CBDCA 30 mg/kg), i.v. (day 9)+ETP 10 mg/kg, i.v. (day 8, 9 and 10)
In the table, values are expressed as the mean±SEM (n=8, RICE group: n=6). ¶¶: P<0.01 versus an RICE group, ##: P<0.01 versus YM155 group, N.S.: no significance from RICE group (Student's t-test).

[6] = day 35, docetaxel 20 mg/kg/day iv day 0, 4, 8, YM155 2 mg/kg/day 7-day sc infusion from day 8
[7] = day 35, YM155 2 mg/kg/day 7-day sc infusion from day 0, docetaxel 20 mg/kg/day iv day 0, 4, 8
[8] = day 35, YM155 2 mg/kg/day 7-day sc infusion from day 0, docetaxel 20 mg/kg/day iv day 7, 11, 15

CC(=O)O[C@@]12CO[C@@H]1C[C@H](O)[C@@]1(C)C(=O)[C@H](O)C3=C(C)[C@@H](OC(=O)[C@H](O)[C@@H](NC(=O)OC(C)(C)C)c4ccccc4)C[C@@](O)([C@@H](OC(=O)c4ccccc4)[C@H]21)C3(C)C [Docetaxel, Docetaxel hydrate]
Number of CRs [1]: 0/8
Tumor Volume day 0 [1]: 210.0 ± 22.6 mm^3
Antitumor Activity, percent inhibition of tumor growth (% inh) [1, 6]: > 100%
Antitumor Activity, percent regression of the tumor (% reg) [1, 6]: 68%
Body Weight day 35 [1, 6]: 23.84 ± 1.01 ^ g
Tumor Volume day 35 [1, 6]: 67.2 ± 15.1 mm^3
Number of Complete Regressions [2]: 0/8
Tumor Volume day 0 [2]: 121.4 ± 7.0 mm^3
Antitumor Activity, percent inhibition of tumor growth (% inh) [2, 7]: > 100%
Antitumor Activity, percent regression of the tumor (% reg) [2, 7]: 52%
Body Weight day 35 [2, 7]: 24.95 ± 0.54 ^ g
Tumor Volume day 35 [2, 7]: 58.0 ± 20.4 mm^3
Number of CRs [3]: 0/8
Tumor Volume day 0 [3]: 209.1 ± 18.3 mm^3
Antitumor Activity, percent inhibition of tumor growth (% inh) [3, 8]: > 100%
Antitumor Activity, percent regression of the tumor (% reg) [3, 8]: 10%
Body Weight day 35 [3, 8]: 21.03 ± 0.94 g
Tumor Volume day 35 [3, 8]: 188.8 ± 29.1 mm^3

COCCn1c2c([n+](Cc3cnccn3)c1C)C(=O)c1ccccc1C2=O.[Br-] [YM155, 1-(2-methoxyethyl)-2-methyl-4,9-dioxo-3-(pyrazin-2-ylmethyl)-4,9-dihydro-1H-naphtho[2,3-d]imidazol-3-ium bromide]
Number of CRs [1]: 0/8
Tumor Volume day 0 [1]: 206.9 ± 21.8 mm^3
Body Weight day 35 [1, 6]: 24.80 ± 1.01 ^ g
Tumor Volume day 35 [1, 6]: 1437.5 ± 225.5 mm^3
Number of Complete Regressions [2]: 0/8
Tumor Volume day 0 [2]: 121.4 ± 6.9 mm^3
Antitumor Activity, percent inhibition of tumor growth (% inh) [2, 7]: 99%
Body Weight day 35 [2, 7]: 26.13 ± 0.56 ^ g
Tumor Volume day 35 [2, 7]: 142.3 ± 16.9 mm^3
anti-tumor activity of 7-day continuous infusion [4]: induced tumor regression
Number of CRs [3]: 0/8
Tumor Volume day 0 [3]: 208.5 ± 18.6 mm^3
Body Weight day 35 [3, 8]: 26.25 ± 0.25 g
Tumor Volume day 35 [3, 8]: 251.8 ± 50.7 mm^3
Number of CRs ([5]; animals with complete regression / animals in group): 0/8
Tumor Volume day 0 ([5]; day 0, mean ± SEM, n=8, RICE group n=6): 405.1 ± 13.8 mm^3
Antitumor Activity, percent inhibition of tumor growth (% inh) ([5]; day 28, YM155 2 mg/kg/day 7-day sc infusion, RICE given day 6-10): 45%
Body Weight day 28 ([5]; day 28, YM155 2 mg/kg/day 7-day sc infusion, RICE given day 6-10, mean ± SEM): 28.81 ± 0.23 g
Tumor Volume day 28 ([5]; day 28, YM155 2 mg/kg/day 7-day sc infusion, RICE: RTX 50 mg/kg iv day 6, 8 + IFM 400 mg/kg + CBDCA 30 mg/kg iv day 9 + ETP 10 mg/kg iv day 8-10, mean ± SEM): 1181.3 ± 174.7 mm^3

From patent publication US8003105B2, “Method of treating cancer by co-administration of anticancer agents” (Astellas Pharma Inc., priority 2006, dated 2011)
